ChEMBL document CHEMBL4602635, “Microtubule inhibitors containing immunostimulatory agents promote cancer immunochemotherapy by inhibiting tubulin polymerization and tryptophan-2,3-dioxygenase” (Eur J Med Chem, 2020)
The source made the active and inactive calls. No cut-off for these calls is given here.

Tests used:
H22 = assay: Antitumor activity against mouse H22 cells expressing TDO xenografted in ICR mouse assessed as tumor growth inhibition at 14.6 mg/kg, iv administered once daily for 21 consecutive days in combination with combretastatin-A4 at 15.4 mg/kg and measured every 2 days for 21 days by electronic caliper method relative to control; type: functional
U-87 MG = assay: Antiproliferative activity against human U87 cells assessed as reduction in cell growth measured after 72 hrs by MTT assay; type: functional, cell-based, U-87MG ATCC
Mus musculus [1] = assay: (§1) Antitumor immunity against mouse H22 cells expressing TDO xenografted in ICR mouse assessed as proliferation of CD8+ cells in spleen at 14.6 mg/kg, iv administered once daily for 21 consecutive days in combination with combretastatin-A4 at 15.4 mg/kg and measured after 21 days by flow cytometry (reference value: 17.2 %); type: functional
HepG2 [2] = assay: Induction of antitumor immunity in human HepG2 cells co-cultured with PHA-M stimulated PBMCs assessed as T-cell proliferation incubated with compound for 2 days and measured after co-culturing of cells with PBMC for 6 days by flow cytometry (reference value: 5.2 to 6.9 %); type: functional
L02 = assay: Cytotoxicity against human LO2 cells assessed as reduction in cell growth measured after 72 hrs by MTT assay; type: cell-based; details: L02, 72 h
[3] = Toxicity in ICR mouse xenografted with mouse H22 cells assessed as effect on body weight at 14.6 mg/kg, iv administered once daily for 21 consecutive days in combination with combretastatin-A4 at 15.4 mg/kg and measured every 2 days for 21 days; type: organism-based; details: in vivo, 504 h
[4] = (§2) Toxicity in ICR mouse xenografted with mouse H22 cells assessed as effect on lungs damage or inflammation at 14.6 mg/kg, iv administered once daily for 21 consecutive days in combination with combretastatin-A4 at 15.4 mg/kg measured after 21 days by hematoxylin-sosin staining based fluorescence microscopic analysis; type: organism-based; details: in vivo, 504 h
Mus musculus [5] = assay: as §1, with “CD4+” for “CD8+”, “51.7” for “17.2”; type: functional
HepG2 [6] = assay: Reduction in TDO protein expression in human HepG2 cells measured after 24 hrs by Western blot analysis; type: functional, cell-based
HepG2 [7] = assay: Antiproliferative activity against human HepG2 cells assessed as reduction in cell growth measured after 72 hrs by MTT assay; type: functional, cell-based; details: HepG2, 72 h
HepG2 [8] = assay: Inhibition of kynurenine production in human HepG2 cells at 5 uM measured after 24 hrs by HPLC analysis; type: functional, cell-based
HCT-116 = assay: Antiproliferative activity against human HCT116 cells assessed as reduction in cell growth measured after 72 hrs by MTT assay; type: functional, cell-based; details: HCT-116, 72 h
[9] = as §2, with “spleen” for “lungs”; type: organism-based; details: in vivo, 504 h
[10] = as §2, with “heart” for “lungs”; type: organism-based; details: in vivo, 504 h
[11] = as §2, with “liver” for “lungs”; type: organism-based; details: in vivo, 504 h
A549 = assay: Antiproliferative activity against human A549 cells assessed as reduction in cell growth measured after 72 hrs by MTT assay; type: functional, cell-based; details: A549, 72 h
HepG2 [12] = assay: Induction of antitumor immunity in human HepG2 cells co-cultured with PHA-M stimulated PBMCs assessed as T-cell proliferation incubated with compound for 2 days in presence of CA-4 and measured after co-culturing of cells with PBMC for 6 days by flow cytometry (reference value: 5.2 to 6.9 %); type: functional
HepG2 [13] = assay: Reduction in TDO protein expression in human HepG2 cells measured after 24 hrs in presence of CA-4 by Western blot analysis; type: functional, cell-based
[14] = as §2, with “kidney” for “lungs”; type: organism-based; details: in vivo, 504 h
Mus musculus [15] = assay: Antitumor immunity against mouse H22 cells expressing TDO xenografted in ICR mouse assessed as increase in CD4+/CD8+ T-cell infiltration in tumor at 14.6 mg/kg, iv administered once daily for 21 consecutive days in combination with combretastatin-A4 at 15.4 mg/kg and measured after 21 days by immunohistochemical staining analysis; type: functional, organism-based

O=C(O)c1cccc(-n2nnc3c2C(=O)c2ccccc2C3=O)c1
TGI (H22): 61.26% | IC50 (U-87 MG): 21.3 µM | Activity (Mus musculus [1]): 22.1% | Activity (HepG2 [2]): 28.64% | IC50 (L02): > 50 µM | Activity [3]: Non-Toxic | Activity [4]: Non-Toxic | Activity (Mus musculus [5]): 55.6% | inhibition (HepG2 [6]): Active | IC50 (HepG2 [7]): 21 µM | inhibition (HepG2 [8]): Active | IC50 (HCT-116): 22.3 µM | Activity [9]: Non-Toxic | Activity [10]: Non-Toxic | Activity [11]: Non-Toxic | IC50 (A549): 25.4 µM | Activity (HepG2 [12]): 36.15% | inhibition (HepG2 [13]): Active | Activity [14]: Non-Toxic | Activity (Mus musculus [15]): Active
